The target of assay [1] is T1, CDK8/CycC (Homo sapiens, UniProt P49336).
T1 construct: purchased Carna Biosciences
Nature of the assay: CDK8 inhibitory activity (TR-FRET, Kinase Tracer-236 displacement). The note with it: 1 μM of the test compound; read-out: Percent inhibition of CDK8 activity (%). Format: binding. A digest of the protocol: (§1)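 Binding assay measuring displacement of Kinase Tracer-236 (60 nM in the added mix) by compound, using Eu-cryptate anti-GST antibody with CDK8/CycC (84 ng/mL) or CDC2L6/CycC (87 ng/mL) solutions. After 1 h at room temperature, TR-FRET read at 615 and 665 nm (excitation 320 nm).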

Assay [2] has as its system human multiple myeloma RPMI8226 cells. Nature of the assay: Inhibitory activity against human multiple myeloma RPMI8226 cell growth (CellTiter-Glo). The format is cell-based. The settings on record: Homo sapiens, RPMI-8226, 192 h, 1 μM of the test compound, cultured for 8 days; read-out: Percent inhibition of RPMI8226 cell growth (%). The procedure, abridged: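 RPMI8226 cells (300/well) cultured 1 day at 37 °C, 5% CO2, then given compound at 1 μM for 8 days. ATP luminescence (CellTiter-Glo) read; percent inhibition relative to 0.1% DMSO wells.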
Background: ATP-based viability assays read luminescence as a measure of living cells.

In assay [3] the target is T2, CDK19 (CDC2L6/CycC) (Homo sapiens, UniProt Q9BWU1).
T2 construct: purchased Carna Biosciences
T2 sequence (Q9BWU1 whole entry): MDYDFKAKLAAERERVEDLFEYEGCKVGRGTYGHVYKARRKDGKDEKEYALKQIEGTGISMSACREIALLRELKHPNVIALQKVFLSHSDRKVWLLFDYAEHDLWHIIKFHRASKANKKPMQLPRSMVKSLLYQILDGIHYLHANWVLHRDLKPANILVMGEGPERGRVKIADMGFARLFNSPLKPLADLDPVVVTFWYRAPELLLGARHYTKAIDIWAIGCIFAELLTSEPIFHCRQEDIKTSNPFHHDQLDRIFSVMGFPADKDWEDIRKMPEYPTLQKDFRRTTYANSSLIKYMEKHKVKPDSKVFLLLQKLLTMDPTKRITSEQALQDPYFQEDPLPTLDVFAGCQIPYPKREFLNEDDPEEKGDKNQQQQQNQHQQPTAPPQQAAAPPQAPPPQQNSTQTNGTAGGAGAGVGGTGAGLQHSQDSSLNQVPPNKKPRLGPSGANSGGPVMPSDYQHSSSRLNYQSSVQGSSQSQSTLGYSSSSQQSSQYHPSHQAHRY
T2 sequence (P24863 whole entry partner): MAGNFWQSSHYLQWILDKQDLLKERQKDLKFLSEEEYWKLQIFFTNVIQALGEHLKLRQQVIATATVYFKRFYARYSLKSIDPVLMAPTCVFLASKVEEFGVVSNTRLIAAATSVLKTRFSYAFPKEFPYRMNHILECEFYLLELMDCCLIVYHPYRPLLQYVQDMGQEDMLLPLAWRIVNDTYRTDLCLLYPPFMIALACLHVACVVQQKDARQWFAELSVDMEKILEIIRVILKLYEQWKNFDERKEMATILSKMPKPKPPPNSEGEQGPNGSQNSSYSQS
Nature of the assay: CDK19 inhibitory activity (TR-FRET, Kinase Tracer-236 displacement). The note with it: 1 μM of the test compound; read-out: Percent inhibition of CDK19 activity (%). The format is binding. A digest of the protocol: as §1
(In general: TR-FRET usually uses a lanthanide donor and a delayed reading to cut background.)

From patent US9957251B2 (Takeda Pharmaceutical Company Limited, priority 2014, dated 2018) come the findings set out here.

Broadly, the inhibition is the change of the read-out against control, counted positive when it falls.

T1 sequence (P49336 whole entry): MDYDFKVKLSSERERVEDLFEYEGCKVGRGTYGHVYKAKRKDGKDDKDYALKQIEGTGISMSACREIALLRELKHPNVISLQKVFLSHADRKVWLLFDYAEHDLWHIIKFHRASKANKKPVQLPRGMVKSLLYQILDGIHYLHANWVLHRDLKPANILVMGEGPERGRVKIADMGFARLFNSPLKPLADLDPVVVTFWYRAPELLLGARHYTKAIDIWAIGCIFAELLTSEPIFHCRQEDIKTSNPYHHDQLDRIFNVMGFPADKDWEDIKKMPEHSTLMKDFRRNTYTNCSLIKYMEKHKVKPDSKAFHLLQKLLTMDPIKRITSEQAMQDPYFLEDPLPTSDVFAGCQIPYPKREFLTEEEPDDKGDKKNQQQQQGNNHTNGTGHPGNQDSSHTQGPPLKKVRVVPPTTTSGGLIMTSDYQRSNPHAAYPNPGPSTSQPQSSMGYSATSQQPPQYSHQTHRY
T1 sequence (P24863 whole entry partner): as the sequence (P24863 whole entry partner) above

Regarding `O=C(/C=C/c1cnccc1-c1ccc2[nH]cnc2c1)Nc1ccc(CN2CCOCC2)cc1` [Example 241, (2E)-3-(4-(1H-benzimidazol-5-yl)pyridin-3-yl)-N-(4-(morpholin-4-ylmethyl)phenyl)acrylamide], the inhibition at 1 µM was 99% in assay [1], 66% in assay [2] and 101% in assay [3].
In the same order, the values of `O=C(/C=C/c1cnccc1-c1ccc2[nH]ncc2c1)Nc1ccc(CN2CCOCC2)cc1` [Example 242, (2E)-3-(4-(1H-indazol-5-yl)pyridin-3-yl)-N-(4-(morpholin-4-ylmethyl)phenyl)acrylamide] are 96%, 55% and 97%.
`CC(=O)N(C)Cc1cc(NC(=O)/C=C/c2cnccc2-c2cnn(C)c2)ccc1C` [Example 246, (2E)-N-(3-((acetyl(methyl)amino)methyl)-4-methylphenyl)-3-(4-(1-methyl-1H-pyrazol-4-yl)pyridin-3-yl)acrylamide]: the values for the inhibition at 1 µM in assay [1], in assay [2] and in assay [3] were 95%, 49% and 93%, respectively.
In the case of `O=C(/C=C/c1cnccc1-c1cnn(C2CC2)c1)Nc1ccc2c(c1)CN(CC(F)(F)F)CC2` [Example 247, (2E)-3-(4-(1-Cyclopropyl-1H-pyrazol-4-yl)pyridin-3-yl)-N-(2-(2,2,2-trifluoroethyl)-1,2,3,4-tetrahydroisoquinolin-7-yl)acrylamide], the inhibition at 1 µM in assay [1] came out at 98%; in assay [2], 63%; in assay [3], 102%.
Turning to `O=C(/C=C/c1cnccc1-c1cnn(C2CC2)c1)Nc1ccc2c(c1)CN(C(=O)C(F)(F)F)CC2` [Example 248, (2E)-3-(4-(1-Cyclopropyl-1H-pyrazol-4-yl)pyridin-3-yl)-N-(2-(trifluoroacetyl)-1,2,3,4-tetrahydroisoquinolin-7-yl)acrylamide], the inhibition at 1 µM in assay [1] worked out at 98%; in assay [2], 57%; in assay [3], 98%.
Consider `Cn1cc(-c2ccncc2/C=C/C(=O)Nc2ccc(CN3CCOCC3)c(F)c2)cn1` [Example 249, (2E)-N-(3-fluoro-4-(morpholin-4-ylmethyl)phenyl)-3-(4-(1-methyl-1H-pyrazol-4-yl)pyridin-3-yl)acrylamide], for which the inhibition at 1 µM in assay [1] was 99%; in assay [2] it was 62%; in assay [3] it was 97%.
In the same order, the values of `COc1ncc(-c2ccncc2/C=C/C(=O)Nc2ccc(CN3CCOCC3)cc2F)s1` [Example 250, (2E)-N-(2-Fluoro-4-(morpholin-4-ylmethyl)phenyl)-3-(4-(2-methoxy-1,3-thiazol-5-yl)pyridin-3-yl)acrylamide] are 99%, 63% and 96%.
In the same order, the values of `Cn1ccc2cc(NC(=O)/C=C/c3cnccc3-c3cnn(C4CC4)c3)ccc21` [Example 251, (2E)-3-(4-(1-Cyclopropyl-1H-pyrazol-4-yl)pyridin-3-yl)-N-(1-methyl-1H-indol-5-yl)acrylamide] are 100%, 61% and 97%.
In the same order, the values of `CN(C)CCOc1ccc(NC(=O)/C=C/c2cnccc2-c2cnn(C)c2)cc1` [Example 252, (2E)-N-(4-(2-(dimethylamino)ethoxy)phenyl)-3-(4-(1-methyl-1H-pyrazol-4-yl)pyridin-3-yl)acrylamide] are 99%, 60% and 93%.
For the compound `COCCOc1ccc(NC(=O)/C=C/c2cnccc2-c2cnn(C)c2)cc1` [Example 253, (2E)-N-(4-(2-methoxyethoxy)phenyl)-3-(4-(1-methyl-1H-pyrazol-4-yl)pyridin-3-yl)acrylamide], the inhibition at 1 µM in assay [1] was found to be 98%; in assay [2], 62%; in assay [3], 97%.
For the compound `CCN1CCc2cc(NC(=O)/C=C/c3cnccc3-c3cnn(C)c3)ccc2C1` [Example 256, (2E)-N-(2-ethyl-1,2,3,4-tetrahydroisoquinolin-6-yl)-3-(4-(1-methyl-1H-pyrazol-4-yl)pyridin-3-yl)acrylamide], the values for the inhibition at 1 µM in assay [1], in assay [2] and in assay [3] were 96%, 58% and 95%, respectively.
Consider `CCN1CCc2ccc(NC(=O)/C=C/c3cnccc3-c3cnn(C)c3)cc2C1` [Example 257, (2E)-N-(2-ethyl-1,2,3,4-tetrahydroisoquinolin-7-yl)-3-(4-(1-methyl-1H-pyrazol-4-yl)pyridin-3-yl)acrylamide], for which the results for the inhibition at 1 µM in assay [1], in assay [2] and in assay [3] were 99%, 56% and 95%, respectively.
`O=C(/C=C/c1cnccc1-c1cnn(C2CCC2)c1)Nc1ccc(CN2CCOCC2)cc1` [Example 258, (2E)-3-(4-(1-cyclobutyl-1H-pyrazol-4-yl)pyridin-3-yl)-N-(4-(morpholin-4-ylmethyl)phenyl)acrylamide]: the inhibition at 1 µM in assay [1] amounted to 96%; in assay [2] it was 54%; in assay [3], 96%.
As to `Cn1cc(-c2c(F)cncc2/C=C/C(=O)Nc2ccc(CN3CCOCC3)cc2F)cn1` [Example 260, (2E)-3-(5-Fluoro-4-(1-methyl-1H-pyrazol-4-yl)pyridin-3-yl)-N-(2-fluoro-4-(morpholin-4-ylmethyl)phenyl)acrylamide], the inhibition at 1 µM in assay [1] was 98%; in assay [2], 53%; in assay [3] it was 99%.
In the same order, the values of `Cn1cc2cc(-c3ccncc3/C=C/C(=O)Nc3ccc(CN4CCOCC4)cc3)ccc2n1` [Example 261, (2E)-3-(4-(2-methyl-2H-indazol-5-yl)pyridin-3-yl)-N-(4-(morpholin-4-ylmethyl)phenyl)acrylamide] are 97%, 52% and 93%.
In the same order, the values of `O=C(/C=C/c1cnccc1-c1cnn(C2CC2)c1)Nc1ccc2c(ccn2CC(F)(F)F)c1` [Example 266, (2E)-3-(4-(1-Cyclopropyl-1H-pyrazol-4-yl)pyridin-3-yl)-N-(1-(2,2,2-trifluoroethyl)-1H-indol-5-yl)acrylamide] are 99%, 57% and 98%.
Consider `COC(C)c1ccc(NC(=O)/C=C/c2cnccc2-c2cnn(C3CC3)c2)cc1` (stereo not drawn) [Example 271, (2E)-3-(4-(1-cyclopropyl-1H-pyrazol-4-yl)pyridin-3-yl)-N-(4-(1-methoxyethyl)phenyl) acrylamide], for which the inhibition at 1 µM is 102% in assay [1], 62% in assay [2] and 93% in assay [3].
In the same order, the values of `COC(C)(C)Cc1ccc(NC(=O)/C=C/c2cnccc2-c2cnn(C3CC3)c2)cc1` [Example 272, (2E)-3-(4-(1-cyclopropyl-1H-pyrazol-4-yl)pyridin-3-yl)-N-(4-(2-methoxy-2-methylpropyl)phenyl)acrylamide] are 101%, 67% and 94%.
Consider `Cn1cc(-c2ccncc2/C=C/C(=O)Nc2ccc(Cn3cccn3)cc2)cn1` [Example 274, (2E)-3-(4-(1-methyl-1H-pyrazol-4-yl)pyridin-3-yl)-N-(4-(1H-pyrazol-1-ylmethyl)phenyl)acrylamide], for which the figures for the inhibition at 1 µM in assay [1], in assay [2] and in assay [3] were 102%, 53% and 97%, respectively.
In the same order, the values of `Cn1cc(-c2ccncc2/C=C/C(=O)Nc2ccc(Cn3ccnc3)cc2)cn1` [Example 275, (2E)-N-(4-(1H-Imidazol-1-ylmethyl)phenyl)-3-(4-(1-methyl-1H-pyrazol-4-yl)pyridin-3-yl)acrylamide] are 102%, 64% and 98%.
Take `Cn1cc(-c2ccncc2/C=C/C(=O)Nc2ccc(CC(F)(F)F)cc2)cn1` [Example 276, (2E)-3-(4-(1-methyl-1H-pyrazol-4-yl)pyridin-3-yl)-N-(4-(2,2,2-trifluoroethyl)phenyl)acrylamide]: the inhibition at 1 µM amounted to 99% in assay [1], 60% in assay [2] and 92% in assay [3].
In the same order, the values of `Cn1cc(-c2ccncc2/C=C/C(=O)Nc2ccc3c(c2)CCN(CC(F)(F)F)C3)cn1` [Example 277, (2E)-3-(4-(1-methyl-1H-pyrazol-4-yl)pyridin-3-yl)-N′-(2-(2,2,2-trifluoroethyl)-1,2,3,4-tetrahydroisoquinolin-6-yl)acrylamide] are 98%, 65% and 101%.
In the same order, the values of `Cn1cc(-c2ccncc2/C=C/C(=O)Nc2ccc3c(c2)CCN3)cn1` [Example 280, (2E)-N-(2,3-dihydro-1H-indol-5-yl)-3-(4-(1-methyl-1H-pyrazol-4-yl)pyridin-3-yl)acrylamide] are 97%, 58% and 96%.
In the same order, the values of `Cn1cc(-c2ccc(NC(=O)/C=C/c3cnccc3-c3cnn(C4CC4)c3)cc2)cn1` [Example 281, (2E)-3-(4-(1-cyclopropyl-1H-pyrazol-4-yl)pyridin-3-yl)-N-(4-(1-methyl-1H-pyrazol-4-yl)phenyl)acrylamide] are 92%, 58% and 97%.
